Reference: ChEMBL document CHEMBL3885881, “DrugMatrix”

Organism: Rattus norvegicus
Test: DrugMatrix - Regimen: Daily Repeat
Assay type: toxicity, organism-based, Sprague-Dawley
Set-up: regimen Daily Repeat, gender Male, age 6-8 weeks
Conditions: in vivo, po, 400 mg/kg, route oral GAVAGE, dose level High, vehicle 100 % WATER; for ABSOLUTE BASOPHIL / ABSOLUTE EOSINOPHIL / ABSOLUTE LYMPHOCYTE / ABSOLUTE MONOCYTE / ABSOLUTE SEGMENTED NEUTROPHIL / BASOPHIL / EOSINOPHIL / ERYTHROCYTE COUNT / HEMATOCRIT / HEMOGLOBIN / LEUKOCYTE COUNT / LYMPHOCYTE / MEAN CORPUSCULAR HEMOGLOBIN / MEAN CORPUSCULAR HEMOGLOBIN CONCENTRATION / MEAN CORPUSCULAR VOLUME / MONOCYTE / NEUTROPHIL / NUCLEATED RED BLOOD CELLS / PLATELET COUNT: tissue Blood; for ALANINE AMINOTRANSFERASE / ALBUMIN / ALKALINE PHOSPHATASE / ASPARTATE AMINOTRANSFERASE / BLOOD UREA NITROGEN / CARBON DIOXIDE / CHLORIDE / CHOLESTEROL / CREATINE PHOSPHOKINASE / CREATININE / GLUCOSE / LACTATE DEHYDROGENASE / LIPASE / PHOSPHORUS / POTASSIUM / SODIUM / TOTAL BILIRUBIN / TOTAL PROTEIN / URIC ACID: tissue Plasma

Q: For `CCOC(=O)n1ccn(C)c1=S` [CARBIMAZOLE], which “ABSOLUTE BASOPHIL” value (72 h, time 3 day) is on record?
A: 0 CELLS/uL

Q: What about the “ABSOLUTE EOSINOPHIL” value (72 h, time 3 day) of the same compound?
A: 0 CELLS/uL

Q: And the “ABSOLUTE LYMPHOCYTE” value (72 h, time 3 day)?
A: 9627.33 CELLS/uL

Q: What about the “ABSOLUTE MONOCYTE” value (72 h, time 3 day) of the same compound?
A: 0 CELLS/uL

Q: And the “ABSOLUTE SEGMENTED NEUTROPHIL” value (72 h, time 3 day)?
A: 872.67 CELLS/uL

Q: What about the BASOPHIL (72 h, time 3 day) of the same compound?
A: 0%

Q: And the EOSINOPHIL (72 h, time 3 day)?
A: 0%

Q: And the “ERYTHROCYTE COUNT” value (72 h, time 3 day)?
A: 5.66 x10E6/uL

Q: What about the HEMATOCRIT (72 h, time 3 day) of the same compound?
A: 35.3%

Q: What about the HEMOGLOBIN (72 h, time 3 day) of the same compound?
A: 14.1 G/DL

Q: And the “LEUKOCYTE COUNT” value (72 h, time 3 day)?
A: 10.5 x10E3/uL

Q: What about the LYMPHOCYTE (72 h, time 3 day) of the same compound?
A: 91.67%

Q: And the “MEAN CORPUSCULAR HEMOGLOBIN” value (72 h, time 3 day)?
A: 24.9 pg

Q: And the “MEAN CORPUSCULAR HEMOGLOBIN CONCENTRATION” value (72 h, time 3 day)?
A: 40.03 G/DL

Q: What about the “MEAN CORPUSCULAR VOLUME” value (72 h, time 3 day) of the same compound?
A: 62.3 fL

Q: And the MONOCYTE (72 h, time 3 day)?
A: 0%

Q: What about the NEUTROPHIL (72 h, time 3 day) of the same compound?
A: 8.33%

Q: And the “NUCLEATED RED BLOOD CELLS” value (72 h, time 3 day)?
A: 0 /100WBC

Q: And the “PLATELET COUNT” value (72 h, time 3 day)?
A: 1182.33 x10E3/uL

Q: What about the “ALANINE AMINOTRANSFERASE” value (72 h, time 3 day) of the same compound?
A: 38.33 u/L

Q: And the ALBUMIN (72 h, time 3 day)?
A: 4.2 G/DL

Q: And the “ALKALINE PHOSPHATASE” value (72 h, time 3 day)?
A: 421 u/L

Q: What about the “ASPARTATE AMINOTRANSFERASE” value (72 h, time 3 day) of the same compound?
A: 56 u/L

Q: What about the “BLOOD UREA NITROGEN” value (72 h, time 3 day) of the same compound?
A: 12.67 mg/dL

Q: What about the “CARBON DIOXIDE” value (72 h, time 3 day) of the same compound?
A: 25.67 mmol/L

Q: What about the CHLORIDE (72 h, time 3 day) of the same compound?
A: 101.67 MEQ/L

Q: And the CHOLESTEROL (72 h, time 3 day)?
A: 82 mg/dL

Q: What about the “CREATINE PHOSPHOKINASE” value (72 h, time 3 day) of the same compound?
A: 338 u/L

Q: What about the CREATININE (72 h, time 3 day) of the same compound?
A: 0.17 mg/dL

Q: And the GLUCOSE (72 h, time 3 day)?
A: 149 mg/dL

Q: And the “LACTATE DEHYDROGENASE” value (72 h, time 3 day)?
A: 171 u/L

Q: And the LIPASE (72 h, time 3 day)?
A: 9.67 u/L

Q: What about the PHOSPHORUS (72 h, time 3 day) of the same compound?
A: 11.57 mg/dL

Q: And the POTASSIUM (72 h, time 3 day)?
A: 6.88 MEQ/L

Q: And the SODIUM (72 h, time 3 day)?
A: 143.1 MEQ/L

Q: And the “TOTAL BILIRUBIN” value (72 h, time 3 day)?
A: 0.2 mg/dL

Q: What about the “TOTAL PROTEIN” value (72 h, time 3 day) of the same compound?
A: 5.97 G/DL

Q: And the “URIC ACID” value (72 h, time 3 day)?
A: 1.73 mg/dL

Q: What about the “ABSOLUTE BASOPHIL” value (120 h, time 5 day) of the same compound?
A: 0 CELLS/uL

Q: What about the “ABSOLUTE EOSINOPHIL” value (120 h, time 5 day) of the same compound?
A: 0 CELLS/uL

Q: And the “ABSOLUTE LYMPHOCYTE” value (120 h, time 5 day)?
A: 9558.67 CELLS/uL

Q: What about the “ABSOLUTE MONOCYTE” value (120 h, time 5 day) of the same compound?
A: 45.33 CELLS/uL

Q: And the “ABSOLUTE SEGMENTED NEUTROPHIL” value (120 h, time 5 day)?
A: 1996 CELLS/uL

Q: What about the BASOPHIL (120 h, time 5 day) of the same compound?
A: 0%

Q: What about the EOSINOPHIL (120 h, time 5 day) of the same compound?
A: 0%

Q: What about the “ERYTHROCYTE COUNT” value (120 h, time 5 day) of the same compound?
A: 5.99 x10E6/uL

Q: What about the HEMATOCRIT (120 h, time 5 day) of the same compound?
A: 37.23%

Q: What about the HEMOGLOBIN (120 h, time 5 day) of the same compound?
A: 15.17 G/DL

Q: What about the “LEUKOCYTE COUNT” value (120 h, time 5 day) of the same compound?
A: 11.6 x10E3/uL

Q: What about the LYMPHOCYTE (120 h, time 5 day) of the same compound?
A: 82.33%

Q: What about the “MEAN CORPUSCULAR HEMOGLOBIN” value (120 h, time 5 day) of the same compound?
A: 25.33 pg

Q: And the “MEAN CORPUSCULAR HEMOGLOBIN CONCENTRATION” value (120 h, time 5 day)?
A: 40.73 G/DL

Q: What about the “MEAN CORPUSCULAR VOLUME” value (120 h, time 5 day) of the same compound?
A: 62.13 fL

Q: What about the MONOCYTE (120 h, time 5 day) of the same compound?
A: 0.33%

Q: What about the NEUTROPHIL (120 h, time 5 day) of the same compound?
A: 17.33%

Q: What about the “NUCLEATED RED BLOOD CELLS” value (120 h, time 5 day) of the same compound?
A: 0 /100WBC

Q: What about the “PLATELET COUNT” value (120 h, time 5 day) of the same compound?
A: 1416 x10E3/uL

Q: What about the “ALANINE AMINOTRANSFERASE” value (120 h, time 5 day) of the same compound?
A: 37.33 u/L

Q: And the ALBUMIN (120 h, time 5 day)?
A: 3.73 G/DL

Q: What about the “ALKALINE PHOSPHATASE” value (120 h, time 5 day) of the same compound?
A: 235 u/L

Q: And the “ASPARTATE AMINOTRANSFERASE” value (120 h, time 5 day)?
A: 30.33 u/L

Q: What about the “BLOOD UREA NITROGEN” value (120 h, time 5 day) of the same compound?
A: 19 mg/dL

Q: And the “CARBON DIOXIDE” value (120 h, time 5 day)?
A: 20.67 mmol/L

Q: What about the CHLORIDE (120 h, time 5 day) of the same compound?
A: 105.33 MEQ/L

Q: And the CHOLESTEROL (120 h, time 5 day)?
A: 80 mg/dL

Q: And the “CREATINE PHOSPHOKINASE” value (120 h, time 5 day)?
A: 198 u/L

Q: And the CREATININE (120 h, time 5 day)?
A: 0.16 mg/dL

Q: What about the GLUCOSE (120 h, time 5 day) of the same compound?
A: 124.67 mg/dL

Q: And the “LACTATE DEHYDROGENASE” value (120 h, time 5 day)?
A: 434.67 u/L

Q: What about the LIPASE (120 h, time 5 day) of the same compound?
A: 9.33 u/L

Q: What about the PHOSPHORUS (120 h, time 5 day) of the same compound?
A: 11.57 mg/dL

Q: And the POTASSIUM (120 h, time 5 day)?
A: 6.35 MEQ/L

Q: What about the SODIUM (120 h, time 5 day) of the same compound?
A: 144.43 MEQ/L

Q: And the “TOTAL BILIRUBIN” value (120 h, time 5 day)?
A: 0.17 mg/dL

Q: What about the “TOTAL PROTEIN” value (120 h, time 5 day) of the same compound?
A: 5.8 G/DL

Q: What about the “URIC ACID” value (120 h, time 5 day) of the same compound?
A: 1.57 mg/dL
